US20060204980A1, “Colorectal cancer therapies” (priority 2004, published 2006)

How the values were obtained:
[1] = test system: p53^+/+ HCT116 cells; assay: Hypodiploid DNA content by propidium iodide staining and flow cytometry, p53+/+ HCT116; format: cell-based; conditions: 0-20 μM, 48 hours
Experimental: Cells were collected and centrifuged at 3,000 rpm for 5 minutes at 4° C., and washed in PBS (pH 7.2). The cell pellet was solubilized in lysis buffer (20 mM Tris, pH 7.2, 0.5% deoxycholate, 1% Triton X-100, 0.1% SDS, 150 mM NaCl, 1 mM EDTA) containing proteases inhibitors (Complete, Roche Applied Science) for 30 min at 4° C. The lysate was cleared by centrifugation for 15 minutes, and protein concentration was evaluated using a Bio-Rad protein assay system (Bio-Rad Laboratories, Hercules, Calif.). […] Cells were analyzed for hypodiploid DNA content by propidium iodide staining and flow cytometry as described in O'Connor et al., Cancer Cell, 2:43-54 (2002). […]
(§1) The functional consequences of GSK3β inhibition were explored. […] Alternatively, cells were incubated with GSK3β inhibitors LiCl (30 mM) or TDZD (20 μM), harvested after 48 hours and analyzed for cell viability (propidium iodide, red channel) and active caspase-3/7 activity (green channel, […]®, from Chemicon International Inc., Temecula, Calif.), by multiparametric flow cytometry as reported previously in Kim et al., Lancet, 362:205-209 (2003).

[2] = test system: p53^−/− HCT116 cells; assay: Hypodiploid DNA content by propidium iodide staining and flow cytometry, p53-/- HCT116; format: cell-based
Experimental: (§2) Cells were collected and centrifuged at 3,000 rpm for 5 minutes at 4° C., and washed in PBS (pH 7.2). The cell pellet was solubilized in lysis buffer (20 mM Tris, pH 7.2, 0.5% deoxycholate, 1% Triton X-100, 0.1% SDS, 150 mM NaCl, 1 mM EDTA) containing proteases inhibitors (Complete, Roche Applied Science) for 30 min at 4° C. The lysate was cleared by centrifugation for 15 minutes, and protein concentration was evaluated using a Bio-Rad protein assay system (Bio-Rad Laboratories, Hercules, Calif.). Samples (30 μg) were separated by SDS-polyacrylamide gel, transferred to nylon membranes (Millipore), and incubated with primary antibodies to p53 (Oncogene Research Products, FL-393, Santa Cruz Biotechnology, Inc., Santa Cruz, Calif.), p21^Waf1/Cip1 (Oncogene Research Products), XIAP (BD Transduction Laboratories), survivin (NOVUS Biologicals, Littleton, Colo.), MDM2 (Santa Cruz Biotechnology, Inc.), p14^ARF (NOVUS Biologicals), caspase-3 (Cell Signaling Technology), cleaved caspase-3 (Cell Signaling Technology), β-catenin (BD Transduction Laboratories), cyclin B1 (GNS1, Santa Cruz Biotechnology, Inc.), GSK3β (Santa Cruz Biotechnology, Inc.), or β-sactin (Sigma) with detection of reactive bands by chemiluminescence (Amersham). Cells were analyzed for hypodiploid DNA content by propidium iodide staining and flow cytometry as described in O'Connor et al., Cancer Cell, 2:43-54 (2002). Chemicals whose source is not explicitly listed were or can be obtained from Sigma.
as §1, with “explored. Source and maintenance of p53^+/+ and p53^−/− HCT116 colorectal carcinoma cells were as described in Example 2.” for “explored.”, “(2003). […]” for “(2003).”

[3] = test system: p42/p44 MAP kinase; conditions: in vivo, Knockaert et al.; cited from earlier work
[4] = target: T1, GSK3β (Homo sapiens, UniProt P49841); assay: Immunoprecipitation and GSK3β kinase assay using glycogen synthase-derived peptide substrate, from treated HCT116 cells; format: cell-based; set-up: harvested after 6 or 12 hours, and immunoprecipitated with an antibody to GSK3β; endogenous in cells; host or cells: HCT116 (p53+/+) colorectal carcinoma cells; conditions: p53+/+ HCT116 cells; Purvalanol A 10 μM, LiCl 30 mM, TDZD 20 μM; 6 or 12 hours
Experimental: Immune complexes were mixed with a synthetic peptide containing a GSK3β phosphorylation site derived from the sequence of glycogen synthase (Upstate Biotechnology) in the presence of 10 μCi of γ-^32P-ATP (Amersham Corp., Piscataway, N.J.), after 30 min incubation at 30° C., the reaction mixtures were centrifuged briefly, and 15 μl of the supernatant was spotted onto P81 phosphocellulose paper (Whatman Inc., Clifton, N.J.). The membrane was washed three times with 175 mM phosphoric acid, rinsed once in acetone, and dried. Changes in peptide phosphorylation under the various conditions tested were determined by scintillation counting. Data were analyzed using the unpaired t test on a Graphpad Prism software package for Windows (Graphpad Inc., San Diego, Calif.). A P value of 0.05 was considered as statistically significant.

[5] = target: Cdk2 (Homo sapiens, UniProt P24941); conditions: in vivo, Knockaert et al.; cited from earlier work
[6] = test system: in vivo adapted p53^+/+ HCT116 cells; assay: Xenograft tumor model with in vivo adapted p53+/+ HCT116 cells; set-up: species or system CB17 SCID/beige mice
Experimental: In vivo adapted p53^+/+ HCT116 cells (2.5×10^6) were injected in the flank of CB17 SCID/beige mice (Taconics, Germantown, N.Y.) and allowed to form palpable solid tumors for 4-6 days. […] Tumor measurements were taken daily for a week with a caliper. Tumor volume was calculated according to the formula ½ [length (mm)]×[width (mm)]^2.
Adapted HCT116 cells in CB-17 SCID/beige mice gave rise to rapidly growing solid tumors over a one-week period. […] See filled-in circles in FIG. 7.

[7] = target: T1, GSK3β; conditions: battery of kinase substrates, Bain et al.; cited from earlier work
[8] = test system: p53^−/− HCT116 colorectal carcinoma cells; assay: Western blotting of p53 pathway proteins in treated p53-/- HCT116 cells; format: cell-based
Experimental: as §2
To explore the link between GSK3β inhibition and p53 modulation, in vivo, HCT116 cells were treated with Li, TDZD or SB216763, and analyzed cells by Western blotting. p53^+/+ or p53^−/− HCT116 cells were incubated with the following GSK3β inhibitors, LiCl (Sigma, 30 mM), thiadiazolidinone-8 (TDZD) (Calbiochem, 0-20 μM), or SB216763 (Sigma, 20 μM), cells were harvested after 6-24 hours, and samples were analyzed by Western blotting as described in Example 2.

T1 sequence (P49841 whole entry): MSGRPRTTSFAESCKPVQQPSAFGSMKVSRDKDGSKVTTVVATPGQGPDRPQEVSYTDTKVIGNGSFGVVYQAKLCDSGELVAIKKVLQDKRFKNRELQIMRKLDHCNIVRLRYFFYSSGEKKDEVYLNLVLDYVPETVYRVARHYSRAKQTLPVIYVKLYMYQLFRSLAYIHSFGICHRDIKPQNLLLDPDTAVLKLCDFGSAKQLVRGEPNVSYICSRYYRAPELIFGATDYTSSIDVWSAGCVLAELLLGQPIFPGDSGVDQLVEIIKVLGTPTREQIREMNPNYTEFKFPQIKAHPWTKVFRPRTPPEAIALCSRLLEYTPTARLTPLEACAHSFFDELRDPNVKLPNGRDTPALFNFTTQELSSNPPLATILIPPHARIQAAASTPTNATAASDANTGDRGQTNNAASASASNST

Compound: CC(C)[C@H](CO)Nc1nc(Nc2cccc(Cl)c2)c2ncn(C(C)C)c2n1 [Purvalanol A]
- apoptosis (hypodiploid DNA content) [1]: concentration-dependent induction of apoptosis
- apoptosis / cell death (hypodiploid DNA content) ([2]; 0-20 μM, 48 hours): largely resistant to Purvalanol A-induced cell death
- cell cycle effect (DNA content) ([2]; 0-20 μM, 48 hours): sustained G2/M arrest
- enhancement of cell death in survivin-ablated (S4) vs VIII transfectants treated with Purvalanol A ([2]; survivin RNAi (S4), Purvalanol A 5 μM, 24 hour): 2.5 fold
- suppression of p42/p44 MAP kinase [3]: equally effective
- GSK3β kinase activity (peptide phosphorylation) [4]: potently inhibited GSK3β kinase activity
- suppression of Cdk2 [5]: equally effective
- systemic toxicity, weight loss ([6]; 20 mg/kg i.p. daily for 5 consecutive days): No signs of systemic toxicity or weight loss
- early tumor growth (tumor volume) ([6]; 25 mg/kg i.p. daily for 5 days): significantly inhibited early tumor growth
- tumor growth (tumor volume) ([6]; 50 mg/kg i.p. injection daily for 5 days, versus lower dose): did not result in further inhibition of tumor growth
- local or systemic toxicity, weight loss ([6]; 25 and 50 mg/kg i.p. daily for 5 days): no signs of local or systemic toxicity or weight loss
- activity against GSK3β in vitro [7]: not active against GSK3β
- p53-reactive material (Western blot) [8]: did not modulate the expression of p53-reactive material
- survivin expression (Western blot) [8]: no significant changes in survivin levels
